Measurements published in patent US20140045807A2, “THE USE OF 3-METHOXY-PREGNENOLONE FOR THE PREPARATION OF A DRUG FOR TREATING A TRAUMATIC BRAIN INJURY” (priority 2004, published 2014).

Columns and labels:
CCI-injured animals = assay: Histological analysis of the hippocampus size after CCI; type: in vivo, rat; conditions: 10 mg/kg and 20 mg/kg, first injection 2 h after TBI, day 35
Protocol: FIG. 18: Size of the hippocampus of CCI-injured animals, receiving the first injection of MAP4343 (or vehicle) 2 h after TBI. Data are expressed in percentage of the non-injured hippocampus of Dose 0 (vehicle) animals. ***: p<0.001 Dose 0 injured vs non-injured hippocampus; $: p<0.05 vs Dose 0 injured hippocampus.
CCI was performed with an electromagnetic impact device as described (MyNeurolab, St. Louis, Mo.; Brody et al. 2007). Anesthesized rats were subjected to a single right lateral CCI, with the following parameters: impact centered 4.0 mm anterior to lambda and 4.5 mm […] of midline, within the craniotomy of the animal. The impact was set at a velocity of 4 m/s with a sustained depression of 200 ms, using a 5.0 mm tip.
Frozen sections were stained with cresyl violet. For each section analyzed, the size of the hippocampus was determined by first outlining all remaining tissue of each section taken at 500 μm intervals through the lesion (right hemisphere) or contra lateral hemisphere, thus providing a total tissue area (mm2) of the two hemispheres for each section. Then, the areas of sections were summed per hemisphere.

[1] = test system: microtubule-associated MAP2 in PC12 cells; assay: Immunolabeling of microtubule-associated MAP2 in PC12 cells; type: cell-based, rat; conditions: 20 μM, NGF 10 ng/ml (FIG. 4)
Text: They were fixed and exposed to anti-MAP2 antibodies that reveal microtubule-associated MAP2 exclusively.
To test the effect of selected molecules on neuritic growth, we first used the PC12 line, which has long been employed in neurobiological research. In the presence of NGF (nerve growth factor), the cells of this line, which arise from a rat pheochromocytoma, form neuritic extensions containing MAP-associated microtubules. The growth of these elongations is stimulated by the addition of PREG. […] This neurite growth accompanies the stimulation by 43-B of the association of MAP2 to the microtubules (FIG. 4).

CO[C@H]1CC[C@@]2(C)C(=CC[C@H]3[C@@H]4CC[C@H](C(C)=O)[C@@]4(C)CC[C@@H]32)C1 [3-methoxy-PREG, 3β-methoxy-pregna-5-ene-20-one]
size of the injured hippocampus (CCI-injured animals): significantly increases the size of the injured hippocampus
association of MAP2 to the microtubules [1]: stimulation
